The values below come from patent publication US20250186467A1, “METHODS OF TREATING MEDICAL CONDITIONS USING STAMPIDINE OR A RELATED COMPOUND” (ROME Therapeutics, Inc., priority 2022, published 2025).

Series [1] has as its target T1, LINE1 reverse transcriptase (Homo sapiens, UniProt O00370). As to the kind of experiment: Transient artificial-intron Cis LINE1 reporter assay. The class given is cell-based. Further details: expressed in transfected cells. The following applies: HEK 293 cells, ratio FLuc/RLuc reports LINE1 activity; read-out: IC50, inhibition of FLuc (FF/RR). The procedure: Intron-disrupted Firefly luciferase (FLuc) expression cassettes were generated as described by Xie, Y. et al. “Characterization of L1 retrotransposition with high-throughput dual-luciferase assays,” Nucleic Acid Res. (2011) Vol. 39, No. 3, e16. In addition, the plasmid contained an intact Renilla luciferase (RLuc) expression cassette on the vector backbone, in order to normalize transfection efficiency and measure potential cell toxicity.
HEK 293 cells were seeded in 96-well plates at 1,000 cells/well in 55 μL and grown for 24 hours. Cells were transfected with FuGeneHD (Promega) following the manufacturer's protocol. Each well received 0.133 ng plasmid, 0.4 μL FuGeneHD reagent, and 4.5 μL GlutaMAX-I-supplemented Opti-MEM I reduced-serum medium (Invitrogen). Cells were simultaneously treated with test compound serially diluted starting at 100 μM in a 3-fold dilution dose response.
Luminescence was measured using the Dual-Glo Luciferase Assay System (Promega) following the manufacturer's instructions. The ratio between FLuc and RLuc gene expression was used to report LINE1 activity.
Background: Reporter assays use an easily measured gene product as a stand-in for the process of interest.

Series [2] addresses T1, LINE1 reverse transcriptase. The series can be described thus: Stable artificial-intron Cis LINE1 reporter assay. The following applies: HeLa L1 artificial-intron reporter cells, doxycycline induced, 72 h, Firefly luciferase; read-out: IC50, inhibition of LINE1 reverse transcriptase. Further details: expressed in transfected cells; host or cells: HeLa Tet-On 3G (Takara, cat no 631183). The class given is cell-based. An excerpt: A stable HeLa Tet-On 3G (Takara, cat no 631183) cell line expressing a bi-directional inducible LINE1 construct was generated as described in Xie, Y. et al. “Cell division promotes efficient retrotransposition in a stable L1 reporter cell line,” Mobile DNA (2013) 4:10. Single cell clones were screened for high Luciferase expression and the highest expression Firefly expressing clone was chosen for compound testing.
Test compound was serially diluted in DMSO and spotted in 96-well plates. Subsequently the HeLa L1 artificial-intron reporter cells were plated into the compound-containing wells (8,000 cells/well), and the cells were induced for reporter expression with doxycycline (Sigma cat no D9891) at a final concentration of 500 ng/mL. Luminescence was measured 72 h after plating using the Dual-Glo Luciferase Assay System (Promega cat no E2940) following the manufacturer's instructions. The Firefly Luciferase activity was used to report LINE1 activity.

The target is the same in series [3]. The series can be described thus: Homogeneous time-resolved fluorescence (HTRF) LINE1 RT assay. The following applies: recombinant MBP-tagged LINE1 protein (238-1061), read-out: IC50, inhibition of LINE1 reverse transcriptase. Set-up: recombinant MBP-tagged LINE1 protein (238-1061); MBP; made in house. The series is classed as biochemical. How it is done:
The LINE1 reverse transcriptase homogeneous time-resolved fluorescence (HTRF) assay was performed with recombinant MBP-tagged LINE1 protein (238-1061) (generated and purified according to procedures in Dai L. et al. BMC Biochemistry 2011; 12:18) in a 384-well format. Test compound was serially diluted in DMSO and further diluted in the assay buffer (50 mM Tris-HCl, 50 mM KCl, 10 mM MgCl2, 10 mM DTT, pH 8.1) to achieve a final DMSO concentration of 1%. The serially diluted compound was mixed with 64 ng/well of LINE1 enzyme, 5 nM of pre-annealed template/biotin-primer pair (synthesized at Generay Biotechnology), 10 nM of Fluorescein-12-dATP fluorescent probe (Perkin Elmer), and 1 μM dGTP/dCTP/dTTP (Thermo Fisher Scientific) in the assay buffer. The template/biotin-primer sequences were as follows:
After incubating at 25° C. for 60 minutes, the detection reagent (20 mM EDTA with streptavidin-terbium cryptate, Cisbio Bioassay) in the PPI buffer (Cisbio Bioassay) was added, and the mixture was incubated at 25° C. for 30 minutes. At the end of the incubation, fluorescence was read at ex/em=337/485 nm and ex/em=337/520 nm on an Envision 2104 plate reader (Perkin Elmer). The fluorescence ratio at 520/485 nm was used for the calculation. […] The IC50 was calculated by fitting the compound dose inhibition curve with a 4-parameter non-linear regression equation.
A general note: Time-resolved FRET reads energy transfer from a long-lived donor to a nearby acceptor.

Series [4] addresses HERV-K reverse transcriptase (Homo sapiens, UniProt V9H0F6). The series can be described thus: Homogeneous time-resolved fluorescence (HTRF) HERV-K RT assay. The class given is biochemical. The conditions noted are these: HERV-K reverse transcriptase (2-596)-8His protein, read-out: IC50, inhibition of HERV-K reverse transcriptase. How it is done:
The HERV-K reverse transcriptase homogeneous time-resolved fluorescence (HTRF) assay was performed in a 384-well format with HERV-K reverse transcriptase (2-596)-8His protein. Baculoviruses were created using Bac-to-Bac technology (Invitrogen). pFastBac donor plasmids containing HERV-K reverse transcriptase sequence (NCBI GenBank number AAC63291.1, J. Virology (1999) Vol. 73, No. 3, pp. 2365-2375) were transformed into DH10 Bac cells following the manufacturer's instructions. Recombinant bacmids were then isolated clonally and transfected into SF9 cells with lipofectin. HERV-K reverse transcriptase was expressed in the SF9 insect cells and then purified using immobilized metal affinity chromatography (IMAC) followed by size-exclusion chromatography (SEC). […]
After incubating at 25° C. for 30 minutes, the detection reagent 20 mM EDTA with streptavidin-terbium cryptate (Cisbio Bioassay) in the PPI buffer (Cisbio Bioassay) was added, and the mixture was incubated at 25° C. for 30 minutes. At the end of the incubation, fluorescence was read at ex/em=337/485 nm and ex/em=337/520 nm on an Envision 2104 plate reader (Perkin Elmer). The fluorescence ratio at 520/485 nm was used for the calculation. […] The IC50 was calculated by fitting the compound dose inhibition curve with a 4-parameter non-linear regression equation.

For the next series, the system named is THP1-Dual KO-TREX1 cells. The series can be described thus: CellTiter-Glo cell viability in THP1 TREX1 KO cells. The conditions noted are these: highest dose, with 1 μM 5-aza-2′-deoxycytidine, five days. The series is classed as cell-based. The procedure:
THP1 Dual TREX1 KO cells were purchased from Invivogen. The THP1-Dual™ KO-TREX1 cells were cultured in RPMI 1640, 10% heat-inactivated fetal bovine serum, 25 mM HEPES, 10 μg/mL Blasticidin, and 100 μg/mL Zeocin. THP1-Dual™ KO-TREX1 cells were treated with a dose titration of test compound in the presence of 1 μM 5-aza-2′-deoxycytidine (Sigma, cat #189825). Type 1 Interferon and cell viability were assessed after five days of treatment.
Stock solution of test compound was prepared in DMSO followed by a three-fold dilution in DMSO. Additional 50× dilution was prepared in cell culture media for each dilution. 10 μL of diluted test compound was then added to a 384-well plate.
THP1-Dual™ KO-TREX1 cells were treated with 1 μM 5-aza-2′-deoxycytidine. THP1-Dual™ KO-TREX1 cells (50 μL) were added to each well of the 384-well plate containing test compound titration at 10,000 cells/well. Cells were incubated at 37° C., 5% CO2 in a humidified incubator for five days. […] Luminescence was detected on a plate reader according to manufacturer's instructions. […]
The remaining cells were assessed for cell viability by adding 30 μl of CellTiter-Glo (Promega, 09683) solution to each well, and placed on a shaker for 10 minutes at room temperature. Luminescence was detected on a plate reader, according to manufacturer's instructions. […]
A general note: In ATP-based viability assays light output follows the ATP content of the culture.

HERV-K reverse transcriptase, sequence (V9H0F6 entry or part of it): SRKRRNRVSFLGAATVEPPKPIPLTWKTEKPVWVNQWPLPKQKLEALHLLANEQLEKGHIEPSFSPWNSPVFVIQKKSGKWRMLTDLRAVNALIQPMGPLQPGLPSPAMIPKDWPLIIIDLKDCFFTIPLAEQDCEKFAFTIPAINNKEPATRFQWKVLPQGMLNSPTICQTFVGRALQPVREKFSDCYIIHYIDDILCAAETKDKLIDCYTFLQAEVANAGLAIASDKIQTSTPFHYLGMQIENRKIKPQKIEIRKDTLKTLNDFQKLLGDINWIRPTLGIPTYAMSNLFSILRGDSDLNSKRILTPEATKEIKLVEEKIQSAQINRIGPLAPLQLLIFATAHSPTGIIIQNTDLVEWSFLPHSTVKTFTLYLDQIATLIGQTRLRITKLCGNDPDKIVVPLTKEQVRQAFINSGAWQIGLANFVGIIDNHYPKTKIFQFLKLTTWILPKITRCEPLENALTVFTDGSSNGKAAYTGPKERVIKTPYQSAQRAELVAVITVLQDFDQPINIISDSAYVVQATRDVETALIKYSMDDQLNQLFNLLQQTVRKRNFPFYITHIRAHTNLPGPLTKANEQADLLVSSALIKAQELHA

For `COC(=O)[C@H](C)NP(=O)(OC[C@@H]1C=C[C@H](n2cc(C)c(=O)[nH]c2=O)O1)Oc1ccc(Br)cc1` (some centres unmarked) [drawing 36], the IC50 in series [1] was found to be 5.7 nM.
Regarding `COC(=O)[C@H](C)NP(=O)(OC[C@@H]1C=C[C@H](n2cc(C)c(=O)[nH]c2=O)O1)Oc1ccc(Br)cc1` (some centres unmarked) [drawing 37], the IC50 in series [2] was determined as 17 nM.
For the compound `Cc1cn([C@H]2C=C[C@@H](COP(=O)(O)OP(=O)(O)OP(=O)(O)O)O2)c(=O)[nH]c1=O` [drawing 38], the IC50 in series [3] was 23 nM.
Consider `Cc1cn([C@H]2C=C[C@@H](COP(=O)(O)OP(=O)(O)OP(=O)(O)O)O2)c(=O)[nH]c1=O` [drawing 39], for which the IC50 in series [4] amounted to 42 nM.
With `Cc1cn([C@H]2C=C[C@@H](CO)O2)c(=O)[nH]c1=O` [stavudine, 1-((2R,5S)-5-(hydroxymethyl)-2,5-dihydrofuran-2-yl)-5-methylpyrimidine-2,4(1H,3H)-dione, reference compound], the “reduction in cell viability” value with THP1-Dual KO-TREX1 cells is given as ~10%.
